Source: patent US7833532B2, “Immunogenic lipopeptides comprising T-helper and cytotoxic T lymphocyte (CTL) epitopes” (The Council of The Queensland Institute of Medical Research, priority 2002, dated 2010)
Where “and” joins values, the source holds several entries; their conditions need not be identical. Identical values can stand only once.

Legend:
B16-OVA cells = test: Protection against B16-OVA melanoma challenge (tumour growth); assay type: in vivo, C57BL/6 mice; settings: 20 nmoles s.c., 2×10^5 B16-OVA cells 14 days later
Source text: FIG. 13 is a graphical representation showing protection against B16 melanoma with lipopeptide vaccination. C57BL/6 mice were vaccinated with 20 nmoles lipidated peptide [P25]-Lys(Pam2Cys-Ser-Ser)-[[…]] ([…] disclosed as SEQ ID NO: 173) (open circles), non-lipidated peptide [P25]-Lys-[[…]] ([…] disclosed as SEQ ID NO: 173) (open triangles) or with PBS (open squares) subcutaneously in the base of the tail. Mice were then challenged s.c. on the back 14 days later with 2×10^5 B16-OVA cells (n=6 per group) and tumour growth monitored as described (Anraku, et al., J Virol. 76; 3791-3799, 2002).
(§1) Each of 9 C57BL/6 mice (8-10 wks) were immunised subcutaneously with 20 nmoles of lipidated [P25]-Lys(Pam2Cys-Ser-Ser)-[[…]] ([…] disclosed as SEQ ID NO: 173) or non-lipidated [P25]-Lys-[[…]] ([…] disclosed as SEQ ID NO: 173) peptide in 100 μl volume of saline. In the case of lipidated peptide, lipid was attached between the two epitopes at the approximate centre of the molecule.
14 days after inoculation with non-lipidated [P25]-Lys-[[…]] ([…] disclosed as SEQ ID NO: 173) or lipidated peptide [P25]-Lys(Pam2Cys-Ser-Ser)-[[…]] […] Growing tumors were monitored, and the animals were sacrificed when tumor size reached 15 by 15 mm. Mean tumor area was calculated for each treatment group at the indicated number of days after the tumor challenge.

splenocytes = test: IFN-gamma secreting splenocytes in mice vaccinated with […] peptides and challenged with B16-OVA; assay type: in vivo, C57BL/6 mice; settings: 20 nmoles s.c., B16-OVA challenge; for No. IFN-γ secreting splenocytes per 10^6 splenocytes, Average: average of three samples; for No. IFN-γ secreting splenocytes per 10^6 splenocytes: individual samples, in vitro stimulation with SIINFEKL
Procedure: as §1
CTL-specific IFN-γ-secreting cells were enumerated by an ELISPOT assay modified from that of Murali-Krishna et al., Immunity 8, 177-187, 1998. Flat-bottom polyvinyl chloride microtiter plates (96-well: Dynatech) were coated overnight with 50 μl of rat anti-(mouse IFN-γ) antibody (clone R4-14a2) at 5 μg/ml in PBS. Unoccupied sites on the wells were then blocked by incubation for 1 h with 10 mg of bovine serum albumin/ml in PBS, and the plates were washed three times with PBS containing 0.05% Tween 20 (PBST). Twofold dilutions of spleen or lymph node cells in T-cell medium were then added to the wells, together with 5×10^5 irradiated (2,200 rads, ^60Co source) syngeneic spleen cells from unimmunized mice and 10 U of recombinant human interleukin-2 (Pharmingen, San Diego, Calif.)/well. Cells were incubated at 37° C. in 5% CO2 for 18 h in the presence or absence of the CTL peptide at a concentration of 1 μg of peptide/ml. Cells were then lysed and removed by rinsing the plates, initially with distilled water and then PBST. Then, 50 μl of a 1/500 dilution of biotinylated anti-(mouse IFN-γ) antibody (clone XMG 1.2; Pharmingen) was added, and the plates were incubated at room temperature for 2 h. Plates were again washed, and 50 μl of streptavidin-alkaline phosphatase (Pharmingen; 1/400 dilution in 5 mg of bovine serum albumin/ml of PBST) was added to each well; the mixtures were then incubated for a further 2 h. […] When blue-green spots had developed, the plates were washed with water and dried, and the spots were counted with the aid of an inverted microscope.
The ability of the lipopeptide vaccine containing the ovalbumin CTL epitope ([…]) (SEQ ID NO: 173) to induce protection against melanoma cells expressing this CTL epitope (B16-OVA cells) was assessed. IFN-γ production was determined in mice inoculated with lipopeptide comprising a CDV-F T-helper epitope (P25) and a CTL epitope ([…]) (SEQ ID NO: 173) of ovalbumin linked via the epsilon amino group of an internal lysine residue positioned between said epitopes to Pam2Cys (i.e. the peptide [P25]-Lys(Pam2Cys-Ser-Ser)-[[…]] ([…] disclosed as SEQ ID NO: 173) listed in FIG. 2 and based upon SEQ ID NO: 174). […] (SEQ ID NO: 173) and the number of IFN-γ producing cells per 1,000,000 splenocytes was measured.

[1] = system: syngeneic spleen cells pulsed with the CTL determinant; settings: mouse
[2] = system: Lewis Lung tumour cells transfected with ovalbumin; test: Therapeutic treatment of Lewis Lung tumour expressing ovalbumin (tumour incidence and survival); assay type: in vivo, mice; settings: 20 nmoles s.c. 4 and 11 days after tumour cells; versus non-lipidated peptide or PBS
Procedure: FIG. 14 is a graphical representation showing therapeutic treatment of Lewis Lung tumour with a lipopeptide immunogen, as determined by the percentage of animals that remain tumor free following immunization. Mice were injected with 3×10^4 Lewis Lung tumour cells that had been transfected with ovalbumin and therefore expressed the CTL epitope […] (SEQ ID NO: 173) [Nelson et al. J Immunol. 166: 5557-5566, 2001]. Four days after receiving tumour cells, animals were inoculated with 20 nmoles lipidated peptide [P25]-Lys(Pam2Cys-Ser-Ser)-[[…]] ([…] disclosed as SEQ ID NO: 173) (open circles), non-lipidated peptide [P25]-Lys-[[…]] […] Animals were monitored for tumour incidence; animals were euthanased when tumour area exceeded 100 mm^2.
FIG. 15 is a graphical representation showing therapeutic treatment of Lewis Lung tumour with a lipopeptide immunogen, as determined by measuring survival of animals following immunization. […] Animals were monitored for survival; animals were euthanased when tumour area exceeded 100 mm^2.
Mice were injected with 3×10^4 Lewis Lung tumour cells that had been transfected with ovalbumin and therefore expressed the CTL epitope (Nelson et al., J Immunol. 166: 5557-5566, 2001). […] Animals were monitored for tumour incidence and survival; animals were euthanased when tumour area exceeded 100 mm^2.

Mem 71 influenza virus = settings: in vivo
D1 cells = test: Maturation of D1 dendritic cells (surface MHC class II, flow cytometry); assay type: cell-based, BALB/c mouse; settings: D1 cells, overnight incubation, 0.45 nmoles/mL; LPS positive control

Question: “KLIPNASLIENCTKAELKSIINFEKL [reference compound]” was tested. Which tumour size (B16-OVA cells; 15 day period) did it give?
Answer: greater than 75 mm^2

Question: What about the “No. IFN-γ secreting splenocytes per 10^6 splenocytes, Average” value (splenocytes) of the same compound?
Answer: 14 per 10^6 splenocytes

Question: And the “No. IFN-γ secreting splenocytes per 10^6 splenocytes” value (splenocytes)?
Answer: 18 per 10^6 splenocytes and 14 per 10^6 splenocytes and 10 per 10^6 splenocytes

Question: With `CCCCCCCCCCCCCCCC(=O)N[C@@H](CSCC(COC(=O)CCCCCCCCCCCCCCC)OC(=O)CCCCCCCCCCCCCCC)C(=O)N[C@@H](CO)C(=O)N[C@@H](CO)C(=O)NCCCC[C@H](NC(=O)[C@H](CO)NC(=O)[C@H](CCCCN)NC(=O)[C@H](CC(C)C)NC(=O)[C@H](CCC(=O)O)NC(=O)[C@@H](NC(=O)CNC(=O)[C@H](CCCCN)NC(=O)[C@@H](NC(=O)[C@H](CCC(N)=O)NC(=O)[C@H](Cc1ccccc1)NC(=O)[C@H](CCCNC(=N)N)NC(=O)[C@H](CC(N)=O)NC(=O)[C@H](CC(N)=O)NC(=O)[C@H](CC(C)C)NC(=O)[C@H](C)N)[C@@H](C)CC)C(C)C)C(=O)N[C@H](C(=O)N[C@@H](Cc1ccc(O)cc1)C(=O)N[C@@H](CCC(N)=O)C(=O)N[C@@H](CCCNC(=N)N)C(=O)N[C@H](C(=O)N[C@@H](CCCNC(=N)N)C(=O)N[C@@H](C)C(=O)N[C@@H](CC(C)C)C(=O)N[C@H](C(=O)O)C(C)C)[C@@H](C)O)[C@@H](C)O` (stereo partly drawn) [[Th]-Lys(Pam3Cys-Ser-Ser)-[CTL]] as the compound, how does the “CTL determinant specific cytotoxicity (specific lysis) in vivo” value [1] read?
Answer: marked enhancement of specific lysis in vivo

Question: How did the “tumour growth (in words)” value (B16-OVA cells; over a 15 day period) turn out when “[P25]-Lys(Pam2Cys-Ser-Ser)-[SIINFEKL]: peptide [P25]-Lys-[SIINFEKL] and a lipid of the Formula (IV) conjugated to the epsilon-amino group of the internal lysine (KLIPNASLIENCTKAELKSIINFEKL; Pam2Cys-Ser-Ser lipid on internal lysine)” was run?
Answer: No tumour growth

Question: What about the “No. IFN-γ secreting splenocytes per 10^6 splenocytes, Average” value (splenocytes) of the same compound?
Answer: 227 per 10^6 splenocytes

Question: What about the “No. IFN-γ secreting splenocytes per 10^6 splenocytes” value (splenocytes) of the same compound?
Answer: 284 per 10^6 splenocytes and 205 per 10^6 splenocytes and 192 per 10^6 splenocytes

Question: And the “percentage of animals with fewer lesions developing (tumour free)” value [2]?
Answer: significantly higher

Question: And the survival [2]?
Answer: survived for longer

Question: With “ALNNRFQIKGVELKSKTYQRTRALV [[Th]-Lys-[CTL]]” as the compound, how does the “reduction in viral load in the lungs compared to PBS alone” value (Mem 71 influenza virus) read?
Answer: 65%

Question: And the “maturation of dendritic cells / up-regulation of MHC class II expression (comparative, in words)” value (D1 cells)?
Answer: least effective
